Experimental data as given in patent publication US12138254B2, “Chronic nightly dosing of lasmiditan for migraine prevention” (Eli Lilly and Company, priority 2018, dated 2024).

Assays:
[1] = test system: dural plasma protein extravasation; assay: Trigeminal stimulation-induced dural plasma protein extravasation (PPE) in rats; format: in vivo, Sprague-Dawley rats
From the text: Migraine is a painful condition thought to involve neurogenic inflammation of the dural membrane and activation of the trigeminal nervous system. The 5-HT1F receptor is widely expressed in the CNS and peripheral nerves, including the trigeminal ganglia, dorsal root ganglia and trigeminal nucleus caudalis. Plasma protein extravasation (PPE), one component of neurogenic inflammation, can be induced in the dura of rats by electrically stimulating the trigeminal ganglion. Considering the role of the trigeminal nerve in the physiology of migraine, this study is useful to characterize the ability of lasmiditan-hemisuccinate to block plasma protein extravasation in the dura of rats following electrical stimulation of the trigeminal ganglion.
To investigate the potential of lasmiditan to modify the dysfunction in the target tissue, the duration of effect following a single oral dose of lasmiditan-hemisuccinate was also determined. Electrical stimulation of the trigeminal ganglion of rats and guinea pigs can be used to induce neurogenic inflammation in the meninges (dura). Briefly, unilateral electrical stimulation of either the left or right trigeminal ganglion using electrodes implanted stereotaxically is used to induce ipsilateral neurogenic inflammation and the increased extravasation of plasma proteins.
Lasmiditan-hemisuccinate is dissolved in sterile water. All doses of lasmiditan are reported as free base equivalent doses, accounting for the weight of the salt. Envigo Sprague-Dawley, Sprague-Dawley male rats (250-350 grams, n=4/group) are fasted overnight prior to dosing. The animals are orally gavaged (2 mL/kg dose volume) with test compound or vehicle one hour prior to stimulation time and returned to their cages with only water available. Approximately 50 minutes post-dosing, the rats are anesthetized with Nembutal (65 mg/kg, ip.) and implanted with stainless steel stimulating electrodes (Rhodes Medical Systems, Inc.) to a depth of 9.2 mm. from the dura. The femoral vein is exposed and fluorescein isothiocyanate-labeled bovine serum albumin (FITC-BSA) (20 mg/kg, iv.), is injected into the femoral vein 2 minutes prior to stimulation. The FITC-BSA functions as a marker for protein extravasation. The left trigeminal ganglion is stimulated for 5 minutes at a current intensity of 1.0 mA (5 Hz, 5 msec pulse duration) with a Model S48 Grass Instrument Stimulator with PSIU6 photoelectric isolation unit (Grass-Telefactor). Five minutes following stimulation, a blood sample is collected by cardiac puncture and the rats are sacrificed by exsanguination with 40 ml of saline. One milliliter of blood is collected and placed in a 1.5 ml EDTA coated tube (Fisher Cat. #540734) on ice. Plasma is separated via centrifugation at 10,000 rpm (941 g) for thirty minutes at 4° C. The top of the skull is removed to collect the brain and dural membranes. The brain and plasma samples are frozen at −80° C. until thawed for compound quantification. The membrane samples are removed from both hemispheres, rinsed with water, and spread flat on microscope slides. The slides are dried for 15 minutes on a slide warmer, then the tissues are cover-slipped with a 70% glycerol/water solution. A fluorescence microscope (Zeiss) equipped with a grating monochromator and a spectrophotometer is used to quantify the amount of FITC-BSA dye in each dural sample. The extravasation induced by electrical stimulation of the trigeminal ganglion is an ipsilateral effect (i.e. occurs only on the side of the dura in which the trigeminal ganglion was stimulated). This allows the other (unstimulated) half of the dura to be used as the control. The ratio of extravasation in the dura from the stimulated side versus the unstimulated side is calculated and reported as the extravasation ratio for each animal. The mean extravasation ratio and standard error of the mean (SEM) are calculated for each treatment group. Controls yield a ratio of approximately 1.8. […]

patients with migraine = assay: Phase 3 studies SAMURAI and SPARTAN, lasmiditan vs placebo for acute treatment of migraine; format: in vivo, human
From the text: Prior clinical development studies of lasmiditan have employed acute on-demand treatment regimens to relieve migraine pain and symptoms and treat migraine. […] From this analysis, the authors concluded the primary and key secondary endpoints were met and safety outcomes were consistent across the two Phase 3 studies. Thus, acute on-demand use of lasmiditan provides effective treatment for a substantial population of migraine patients, however some patients may continue to have attacks and improved methods of treating and/or preventing these attacks represent an important therapeutic goal.
The placebo-controlled Phase 3 studies SAMURAI (NCT02439320) and SPARTAN (NCT02605174) evaluated lasmiditan 50 mg [SPARTAN only], 100 mg and 200 mg. […] GLADIATOR (NCT02565186) is a prospective randomized open-label Phase 3 study to evaluate long-term intermittent use of lasmiditan (100 mg or 200 mg) for acute treatment of migraine. An interim analysis of the effects of lasmiditan on migraine disability assessed with the MIDAS scale in GLADIATOR is described below, and has provided surprising and unexpected evidence of persistent beneficial effects in migraine patients.

CN1CCC(C(=O)c2cccc(NC(=O)c3c(F)cc(F)cc3F)n2)CC1 [Lasmiditan, 2,4,6-trifluoro-N-[6-(1-methyl-piperidin-4-ylcarbonyl)-pyridin-2-yl]-benzamide]
inhibition of dural plasma protein extravasation vs vehicle ([1]; 0.1 mg/kg po, 1 hour post-dose): non-efficacious | inhibition of dural plasma protein extravasation vs vehicle ([1]; single 10 mg/kg po, 24 hours post-dose): equally efficacious | inhibition of dural plasma protein extravasation vs vehicle ([1]; single 10 mg/kg po, 48 hours post-dose): not at 48 hours | recurrence rates of migraine (patients with migraine; 50-mg to 200-mg dose range, 2-hour to 24-hour time frame after dosing): similarly low | efficacy on 2-hour pain freedom, dose relation (patients with migraine; completed single-attack Phase 3 studies): dose related | TEAEs, 200 mg vs 100 mg (patients with migraine; studies of lasmiditan for acute treatment of migraine): numerically more TEAEs
